From US20200261421A1, “HETEROCYCLIC COMPOUNDS AS HIV PROTEASE INHIBITORS” (Merck Sharp & Dohme Corp., priority 2016, published 2020)

What follows are compounds tested against T1, wild-type HIV-1 protease (Human immunodeficiency virus type 1 group M subtype B, UniProt P04585) (assay: Assay for Inhibition of Microbial Expressed HIV Protease). Conditions: Escherichia coli expressed wild-type HIV-1 protease, peptide substrate cleavage; mean of at least two independent experiments.
T1 construct: Escherichia coli expressed wild-type HIV-1 protease protein; made in house; host or cells: Escherichia coli
Type: biochemical
Experimental: Inhibition of Escherichia coli expressed wild-type HIV-1 protease protein was carried out with a peptide substrate [Val-Ser-Gln-Asn-Wnaphtyl)Ala-Pro-Ile-Val]. The inhibitor compound was preincubated with HIV-1 protease enzyme in assay buffer (50 mM sodium acetate, pH 5.5, 100 mM NaCl, and 0.1% BSA) for 30 minutes at room temperature. Peptide substrate was added to 400 μM in a total volume of 20 μL containing 20 pM HIV-1 protease (final) after which the reaction was incubated for 1 hour at 30° C. The reaction was quenched by the addition of formic acid and HIV protease inhibitor indinavir to 0.012% and 150 nM final concentrations, respectively. Product formation was determined after separation of product and substrate on a ZORBAX Eclipse XDB-C18 column (Aligent Technologies, Santa Clara, Calif., USA) connected to an API 4000™ mass spectrometer (AB Sciex, Pte. Ltd., Concord Ontario, Canada) with multiple reaction monitoring (transitions were 644.5/428.9 and 615.4/422.2 (M1/M3) for product and indinavir respectively). The extent of inhibition of the reaction was determined from the peak area of the products. Analysis of the products, independently synthesized, provided quantitation standards and confirmation of the product composition. […] Ic50's refer to the 50% inhibition of the cleavage of a peptide substrate by hiv protease.
Data shown in the table reflects the mean of at least two independent experiments.
Work on `CN(C)C(=O)c1cccc(C2(c3ccc(F)cc3)NC(=N)N(Cc3cccc(C(=O)N(C)Cc4ccc(Cl)cc4)c3)C2=O)c1` (centres unmarked) [Example 34, 3-[1-{3-[(4-chlorobenzyl)(methyl)-carbamoyl]benzyl}-4-(4-fluorophenyl)-2-imino-5-oxoimidazolidin-4-yl]-N,N-dimethylbenzamide] yielded an IC50 of 19.9 nM.
For `CN(C)C(=O)c1cccc(CN2C(=N)NC(c3ccc(F)cc3)(c3cccc(-c4cccc(C#N)c4)c3)C2=O)c1` (centres unmarked) [Example 58, 3-{[4-(3'-cyanobiphenyl-3-yl)-4-(4-fluorophenyl)-2-imino-5-oxoimidazolidin-1-yl]methyl}-N,N-dimethylbenzamide], the IC50 was 63.4 nM.
For `N=C1NC(c2ccccc2)(c2ccccc2)C(=O)N1Cc1ccc(C(F)(F)F)c(C(=O)NCc2ccccc2OC(F)F)c1` [Example 7, N-[2-(difluoromethoxy)benzyl]-5-[(2-imino-5-oxo-4,4-diphenylimidazolidin-1-yl)methyl]-2-(trifluoromethyl)benzamide], the IC50 was 52.4 nM.
`CN(Cc1ccc(Cl)cc1)C(=O)c1cccc(CN2C(=N)NC(c3ccc(F)cc3)(c3ccc(F)cc3)C2=O)c1` [Example 30, 3-{[4,4-bis(4-fluorophenyl)-2-imino-5-oxoimidazolidin-1-yl]methyl}-N-(4-chlorobenzyl)-N-methylbenzamide] was tested, and the IC50 was 17.9 nM.
`COc1ccc(CN2C(=N)NC(c3ccccc3)(c3ccccc3)C2=O)cc1C(=O)N(C)[C@H](C)c1ccccc1` [Example 77, 5-[(2-imino-5-oxo-4,4-diphenylimidazolidin-1-yl)methyl]-2-methoxy-N-methyl-N-[(1R)-1-phenylethyl]benzamide] gave an IC50 of 43.4 nM.
In the case of `CCCC1(c2ccccc2)NC(=N)N(Cc2cccc(C(=O)N(C)Cc3ccc(F)cc3)c2)C1=O` (centres unmarked) [Example 43, N-(4-fluorobenzyl)-3-[(2-imino-5-oxo-4-phenyl-4-propylimidazolidin-1-yl)methyl]-N-methylbenzamide], the IC50 is reported as 28.7 nM.
`N=C1NC(c2ccccc2)(c2ccccc2)C(=O)N1Cc1ccc(C(F)(F)F)c(C(=O)NCc2cccc(OC(F)F)c2)c1` [Example 9, N-[3-(difluoromethoxy)benzyl]-5-[(2-imino-5-oxo-4,4-diphenylimidazolidin-1-yl)methyl]-2-(trifluoromethyl)benzamide] showed an IC50 of 68.4 nM.
`CCN(Cc1ccc(F)cc1)C(=O)c1cccc(CN2C(=N)NC(c3ccc(F)cc3)(c3ccc(F)cc3)C2=O)c1` [Example 42, 3-{[4,4-bis(4-fluorophenyl)-2-imino-5-oxoimidazolidin-1-yl]methyl}-N-ethyl-N-(4-fluorobenzyl)benzamide] was tested, and the IC50 was 28.6 nM.
`CN(Cc1cccnc1)C(=O)c1cccc(CN2C(=N)NC(c3ccc(F)cc3)(c3ccc(F)cc3)C2=O)c1` [Example 57, 3-{[4,4-bis(4-fluorophenyl)-2-imino-5-oxoimidazolidin-1-yl]methyl}-N-methyl-N-(pyridin-3-ylmethyl)benzamide] gave an IC50 of 58.9 nM.
Work on `N=C1NC(c2ccc(F)cc2)(c2ccc(F)cc2)C(=O)N1Cc1ccc(C(F)(F)F)c(C(=O)NCc2cnccn2)c1` [Example 4, 5-{[4,4-bis(4-fluorophenyl)-2-imino-5-oxoimidazolidin-1-yl]methyl}-N-(pyrazin-2-ylmethyl)-2-(trifluoromethyl)benzamide] yielded an IC50 of 30.9 nM.
Compound `CN(Cc1ccc(F)cc1)C(=O)c1csc(CN2C(=N)NC(c3ccccc3)(c3ccccc3)C2=O)c1` [Example 94, N-(4-fluorobenzyl)-5-[(2-imino-5-oxo-4,4-diphenylimidazolidin-1-yl)methyl]-N-methylthiophene-3-carboxamide] has an IC50 of 8.9 nM.
Work on `CN(Cc1ccc(F)cc1)C(=O)c1csc(CN2C(=N)NC(c3ccccc3)(c3ccccc3)C2=O)n1` [Example 95, N-(4-fluorobenzyl)-2-[(2-imino-5-oxo-4,4-diphenylimidazolidin-1-yl)methyl]-N-methyl-1,3-thiazole-4-carboxamide] yielded an IC50 of 30 nM.
Compound `CN(C)C(=O)c1cccc(CN2C(=N)NC(c3ccccc3)(c3cccc(-c4ccccc4)c3)C2=O)c1` (centres unmarked) [Example 63, 3-[(4-biphenyl-3-yl-2-imino-5-oxo-4-phenylimidazolidin-1-yl)methyl]-N,N-dimethylbenzamide] has an IC50 of 83.4 nM.
In the case of `CC(C)CC1(c2ccccc2)NC(=N)N(Cc2ccc(C(F)(F)F)c(C(=O)NCc3ncccn3)c2)C1=O` (centres unmarked) [Example 11, 5-{[2-imino-4-(2-methylpropyl)-5-oxo-4-phenylimidazolidin-1-yl]methyl}-N-(pyrimidin-2-ylmethyl)-2-(trifluoromethyl)-benzamide], the IC50 is reported as 92.1 nM.
`CN(Cc1ccc(Cl)nc1)C(=O)c1cccc(CN2C(=N)NC(c3ccc(F)cc3)(c3ccc(F)cc3)C2=O)c1` [Example 18, 3-{[4,4-bis(4-fluorophenyl)-2-imino-5-oxoimidazolidin-1-yl]methyl}-N-[(6-chloropyridin-3-yl)methyl]-N-methylbenzamide] showed an IC50 of 10.3 nM.
`CN(Cc1ccccc1F)C(=O)c1cccc(CN2C(=N)NC(c3ccc(F)cc3)(c3ccc(F)cc3)C2=O)c1` [Example 65, 3-{[4,4-bis(4-fluorophenyl)-2-imino-5-oxoimidazolidin-1-yl]methyl}-N-(2-fluorobenzyl)-N-methylbenzamide] gave an IC50 of 89.9 nM.
In the case of `CN(C)C(=O)c1cccc(CN2C(=N)NC(c3ccccc3)(c3ccc(-c4cccc(C#N)c4)cc3)C2=O)c1` (centres unmarked) [Example 54, 3-{[4-(3'-cyanobiphenyl-4-yl)-2-imino-5-oxo-4-phenylimidazolidin-1-yl]methyl}-N,N-dimethylbenzamide], the IC50 is reported as 52.2 nM.
`CC(C)C[C@]1(c2ccccc2)NC(=N)N([C@H](C)c2cccc(C(=O)N(C)Cc3ccc(F)cc3)c2)C1=O` [Example 33, N-(4-fluorobenzyl)-3-((R)-1-((R)-2-imino-4-isobutyl-5-oxo-4-phenylimidazolidin-1-yl)ethyl)-N-methylbenzamide] was tested, and the IC50 was 19.8 nM.
With `CN(C)C(=O)c1cccc(CN2C(=N)NC(c3ccccc3)(c3cccc(-c4ccco4)c3)C2=O)c1` (centres unmarked) [Example 56, 3-{[4-(3-furan-2-ylphenyl)-2-imino-5-oxo-4-phenylimidazolidin-1-yl]methyl}-N,N-dimethylbenzamide] the IC50 was 56.3 nM.
Compound `CN(Cc1ccccn1)C(=O)c1cccc(CN2C(=N)NC(c3ccc(F)cc3)(c3ccc(F)cc3)C2=O)c1` [Example 59, 3-{[4,4-bis(4-fluorophenyl)-2-imino-5-oxoimidazolidin-1-yl]methyl}-N-methyl-N-(pyridin-2-ylmethyl)benzamide] has an IC50 of 65.9 nM.
Compound `CN(Cc1ccccc1S(C)(=O)=O)C(=O)c1cccc(CN2C(=N)NC(c3ccc(F)cc3)(c3ccc(F)cc3)C2=O)c1` [Example 52, 3-{[4,4-bis(4-fluorophenyl)-2-imino-5-oxoimidazolidin-1-yl]methyl}-N-methyl-N-[2-(methylsulfonyl)-benzyl]benzamide] has an IC50 of 48.3 nM.
With `CN(Cc1ccccc1S(C)(=O)=O)C(=O)c1ccnc(CN2C(=N)NC(c3ccccc3)(c3ccccc3)C2=O)c1` [Example 92, 2-[(2-imino-5-oxo-4,4-diphenylimidazolidin-1-yl)methyl]-N-methyl-N-[2-(methylsulfonyl)benzyl]pyridine-4-carboxamide] the IC50 was 53 nM.
Compound `CCCC1(c2ccccc2)NC(=N)N(Cc2cccc(C(=O)N(C)Cc3ccc(Cl)cc3)c2)C1=O` (centres unmarked) [Example 27, N-(4-chlorobenzyl)-3-[(2-imino-5-oxo-4-phenyl-4-propylimidazolidin-1-yl)methyl]-N-methylbenzamide] has an IC50 of 16.9 nM.
`CN(C)C(=O)c1cccc(CN2C(=N)NC(c3ccccc3)(c3cccc(-c4cccc(C#N)c4)c3)C2=O)c1` (centres unmarked) [Example 51, 3-{[4-(3'-cyanobiphenyl-3-yl)-2-imino-5-oxo-4-phenylimidazolidin-1-yl]methyl}-N,N-dimethylbenzamide] was tested, and the IC50 was 45.5 nM.
`CC(C)CC1(c2ccccc2)NC(=N)N(Cc2ccc(Cl)c(C(=O)N[C@H](C)c3ccc(F)cc3)c2)C1=O` (stereo partly drawn) [Example 76, 2-chloro-N-[(1R)-1-(4-fluorophenyl)ethyl]-5-{[2-imino-4-(2-methylpropyl)-5-oxo-4-phenylimidazolidin-1-yl]methyl}benzamide] gave an IC50 of 40.1 nM.
With `CN(C)C(=O)c1cccc(CN2C(=N)NC(c3ccccc3)(c3ccc(Br)cc3)C2=O)c1` (centres unmarked) [Example 62, 3-{[4-(4-bromophenyl)-2-imino-5-oxo-4-phenylimidazolidin-1-yl]methyl}-N,N-dimethylbenzamide] the IC50 was 77.3 nM.
`C[C@H](c1ccc(F)cc1)N(C)C(=O)c1cccc(CN2C(=N)NC(c3ccc(F)cc3)(c3ccc(F)cc3)C2=O)c1` [Example 44, 3-{[4,4-bis(4-fluorophenyl)-2-imino-5-oxoimidazolidin-1-yl]methyl}-N-[(1R)-1-(4-fluorophenyl)ethyl]-N-methylbenzamide] was tested, and the IC50 was 29.2 nM.
`CN(Cc1ccc(F)cc1)C(=O)c1cccc(CN2C(=N)NC(c3ccc(F)cc3)(c3ccc(F)cc3)C2=O)c1` [Example 28, 3-{[4,4-bis(4-fluorophenyl)-2-imino-5-oxoimidazolidin-1-yl]methyl}-N-(4-fluorobenzyl)-N-methylbenzamide] gave an IC50 of 17.4 nM.
For `N#Cc1ccc(CNC(=O)c2cc(CN3C(=N)NC(c4ccccc4)(c4ccccc4)C3=O)ccc2Cl)cc1` [Example 74, 2-chloro-N-(4-cyanobenzyl)-5-[(2-imino-5-oxo-4,4-diphenylimidazolidin-1-yl)methyl]benzamide], the IC50 was 11.4 nM.
